We go through six molecules from patent US20250144069A1, “BILOBALIDE DERIVATIVE COMPOUNDS FOR TREATING NEUROLOGICAL DISEASES AND CANCERS” (The Chinese University of Hong Kong, priority 2023, published 2025).

Data set [1] is described as follows: Single-dose CCK-8 cell viability screening (adherent cells). The settings on record: Homo sapiens, average of A549 and Jurkat % viability, 50 uM, 48 h. The format is cell-based, human.
The subject of data set [2] is A549 cells. Described as above. The format is cell-based, human. The conditions noted are these: Homo sapiens, A549 cells, 50 uM, 48 h, CCK-8, read-out: % Viability (50 uM, 48 h) A549.
Another data set concerns Jurkat cells. Put plainly: Single-dose CCK-8 cell viability screening (suspension cells). The format is cell-based, human. The settings on record: Homo sapiens, Jurkat cells, 50 uM, 48 h.
Data set [3] is described as follows: Hydrolytic stability in buffer monitored by LC-MS/MS.
In the next data set the test system is KP-1 cells. Put plainly: Dose-dependent CCK8 viability assay. The format is cell-based. The conditions noted are these: Mus musculus, 48 hours. As for the experimental part: (§1) In this example, dose-dependent CCK8 Viability assay was performed to determine the IC50 (the concentration of compound to achieve 50% viability) of several of the hit compounds identified from Example 2. A variety of cell lines were used: • Jurkat cells: Human leukemia • A549 cells: Human NSCLC • KP-1 cells: Mouse NSCLC with KRAS and P53 mutations • MCF-7 cells: Human breast cancer
(§2) Method for Adherent Cells (A549, MCF-7 and KP-1 Cells)
(§3) 5000 cells/100 uL were seeded in 96-well plates and incubate at 37° C.+5% CO2 overnight. Media were replaced with 100 uL of compound per well in 6 replicates in a series of 2-fold dilutions. The following controls were prepared.
(§4) Blank control: 100 uL 0.1% DMSO in media with no cells per well.
(§5) Positive control: 100 uL of 10 uM 5-flurouracil per well.
(§6) Negative control: 100 uL of 0.1% DMSO in media per well.
(§7) Each 96-well plate included 1 compound in 7 concentrations and a complete set of controls (in 6 replicates).
(§8) Cells were incubated at 37° C.+5% CO2 for 46 hours. 10 uL of CCK8 solution was added to each well. Cells were incubated at 37° C.+5% CO2 for 2 hours. Absorbance at 450 nm was measured using a multiplate reader.
(§9) Viability was calculated using the equation: […]

The subject of data set [4] is A549 cells. The data set is described as follows: Dose-dependent CCK8 viability assay. The format is cell-based, human. The settings on record: Homo sapiens. As for the experimental part:
as §1, §2, §3, §4, §5, §6, §7, §8, §9
On the technique in general: Tetrazolium dyes change colour on reduction, which living cells bring about.

The subject of data set [5] is HMC3 microglial cell line. Put plainly: RSL3-induced ferroptosis model, cell viability (CCK-8). The settings on record: HMC3, multiple doses of RSL3, 50 μM compound. The format is cell-based.
Data set [6] concerns HMC3 cells. Put plainly: Intracellular ROS level by CellROX (fluorescent imaging and flow cytometry). The format is cell-based. The settings on record: HMC3, 50 nM RSL3 2 h, then 50 μM compound 3 h. As for the experimental part: (§10) For flow cytometry, HMC3 cells (seeded 50,000 cells per well on 24-well plate one day prior to the experiment) were pretreated with 50 nM RSL3 for 2 h. […] After which medium was replaced with BODIPY™ 581/591C11 (10 μM, Invitrogen) or CellROX™ Green (5 μM, Invitrogen) for 30 min staining. Cells were then washed 3 times with PBS and collected. Fluorescence was measured by BD FACSympgony A5.2 SORP Flow Cell Analyzer (BD Biosciences).
For fluorescent imaging, 10,000 cells per well of HMC3 were laid on cover slip and incubated overnight. After the same compound treatment as described above in this section, cells were subsequently incubated with CellROX™ Green and Hoechst 34580 (MCE) for 30 min. After incubation, cells were washed 3 times gently with PBS. Cover slips were then attached to glass slides by Anti-Fade Fluorescence Mounting Medium (Abcam) and imaged via ECLIPSE Ti fluorescence microscope (Nikon). Fluorescent intensity was quantified using imageJ software.
To further evaluate the anti-ferroptotic properties of bilobalide analogues, we tested its effect on the total level of intracellular reactive oxygen species (ROS), we performed fluorescent staining on the HMC3 cell line using CellROX, which is a probe which can emit green fluorescence after reacting with ROS. […]

Data set [7] deals with HMC3 cells. The data set is described as follows: Lipid peroxidation level by flow cytometry using C11-BODIPY. The format is cell-based. The settings on record: HMC3, 50 nM RSL3 2 h, then 50, 25 and 12.5 μM compound 3 h. As for the experimental part:
as §10
Disequilibrium ROS level acts as a direct initiator of lipid peroxidation, which is one of the major hallmarks of ferroptosis. In this example, HMC3 cells according to the conditions in Table 4 were subjected to measurement of lipid peroxidation level using flow cytometry and the lipid peroxidation sensor C11-BODIPY.
For flow cytometry, HMC3 cells (seeded 50,000 cells per well on 24-well plate one day prior to the experiment) were pretreated with 50 nM RSL3 for 2 h. After RSL3 treatment, medium was replaced by DMSO (0.1%) only, SXQ087-1 (10, 5 and 2.5 μM), following by 3 h treatment. After which medium was replaced with BODIPY™ 581/591C11 (10 μM, Invitrogen) for 30 min staining. Cells were then washed 3 times with PBS and collected. Fluorescence was measured by BD FACSympgony A5.2 SORP Flow Cell Analyzer (BD Biosciences).
Lipid peroxidation is one of the major hallmarks of ferroptosis. In this example, HMC3 cells according to the conditions in Table 5 were subjected to measurement of lipid peroxidation level using flow cytometry and the lipid peroxidation sensor C11-BODIPY.

The subject of data set [8] is HMC3 cells. The data set is described as follows: Cytotoxicity, cell viability of HMC3 cells. The format is cell-based. The conditions noted are these: 24 h treatment. The source says:
Now referring to FIG. 11A, a chart showing the cell viability (%) of HMC3 cells treated with SXQ087-1, XBB-037 or bilobalide.

The subject of data set [9] is HT22 mouse hippocampal cell line. Put plainly: RSL3-induced ferroptosis model, cell viability (CCK-8). The conditions noted are these: HT22, multiple doses of RSL3, 50 μM compound.
Description: In this example, the anti-ferroptotic properties of the BB analogues described in preceding examples were evaluated by a RSL3-induced ferroptosis model. […] To evaluate the anti-ferroptosis activity of BB analogues, we developed a phenotypic screening based on RSL3-induced ferroptosis model on HT22 mouse hippocampal cell line, HMC3 microglial cell line and BV-2 murine microglial cell line which were co-treated or pre-treated with RSL3 and BB analogues for 2-24 h, and the cell viability was subsequently measured.
HMC3 cell line was maintained in Minimum Essential Medium (MEM, Gibco) supplemented with 1× non-essential amino acid (Gibco), 1 mM sodium pyruvate (Gibco), 10% fetal bovine serum (FBS) (Gibco) and 1% penicillin/streptomycin (Gibco). BV-2 cell line was maintained in Roswell Park Memorial Institute (RPMI) 1640 medium (Gibco) supplemented with 10% FBS and 1% penicillin/streptomycin, and HT22 cell line was maintained in Dulbecco's Modified Eagle's Medium (DMEM) (Gibco) supplemented with 10% FBS and 1% penicillin/streptomycin. All cells were incubated at 37° C. in a humidified atmosphere under 5% CO2.
For phenotypic screening of bilobalide (BB) analogues, 5,000 cells per well (100 uL volume) of HT22, HMC3 or BV-2 cells were placed in 96-well plate and allowed to adhere for 22 h. After which, cells were pre-treated with 200 nM (on HT22, HMC3) or 500 nM (on BV-2) of RSL3 (Bidepharm) for 2 h respectively. Medium was then replaced by 50 μM BB analogues and followed by 22 h incubation subsequently. Cell viability was measured using cell counting kit-8 (CCK-8) (MCE). For dose-response of BB analogues, RSL3, HT22 and HMC3 cells (seeded on 96-well plates at 5,000 cells per well) were treated with multiple doses of RSL3 for 2 h. […] Cell viability was measured after 22 h treatment by CCK-8. […] Cell viability was measured by CCK-8 using CLARIOstar monochromator multimode plate reader under 450 nm wavelength.
In this example, the cells were pre-treated with RSL3 (200 nM for HT22 and HMC3, 500 nM for BV-2) for two hours, followed by bilobalide analogues treatment (50 PM) for 22 hours. Cell viability was measured using cell counting kit-8 (CCK-8); n=5 technical replicates. […] Such effect was further investigated by treating the cell lines with various doses of RSL3.
Where [10] appears, read: buffer pH 7.4, within the first 10 hours.
Where [11] appears, read: Jurkat, CCK-8, read-out: % Viability (50 uM, 48 h) Jurkat.

Where a name gives a salt, the structure may show the parent alone. Read-outs that look alike come from different tables or passages of the source.

The viability is a read-out of living cells in per cent, often relative to untreated cells. Turning to `CC(C)(C)[C@]1(O)C[C@@H]2OC(=O)C[C@@]23C(=O)O[C@@H]2NC(=O)[C@H](O)[C@]213` [XBB-006, (3aS,5aS,8R,8aS,9R,10aS)-9-(tert-butyl)-8,9-dihydroxytetrahydro-4H,9Hfuro[3″,2″:2′,3′]cyclopenta[1′,2′:3,4]furo[2,3-b]pyrrole-2,4,7(3H,8H)-trione], the viability at 50 µM worked out at 99.2% in data set [1]; 96.4% in the data set with A549 cells [2]; 102% with Jurkat cells (CCK-8, read-out: % Viability (50 uM, 48 h) Jurkat). For the same molecule, the “concentration remaining (hydrolytic stability)” value in data set [3] (buffer pH 6.8, after 20 hours) is listed as “about 80%”; in [3] (setting [10]), “above 80%”.

Usually IC50 stands for the concentration at which inhibition is half-maximal. In the data set with KP-1 cells, `CC(C)(C)[C@]1(O)C[C@@H]2OC(=O)C[C@@]23C(=O)O[C@@H]2N(CC4C5CC6CC(C5)CC4C6)C(=O)[C@H](OC(=O)c4ccc(CN)cc4)[C@]213` (stereo partly drawn) [SCC506, (3aS,5aS,8R,8aS,9R,10aS)-6-(((1S,3S)-adamantan-2-yl)methyl)-9-(tert-butyl)-9-hydroxy-2,4,7-trioxooctahydro-4H,9H-furo[3″,2″:2′,3′]cyclopenta[1′,2′:3,4]furo[2,3-b]pyrrol-8-yl 4-(aminomethyl)benzoate hydrochloride] came in with an IC50 of 17.2 µM.

`CC(C)(C)[C@]1(O)C[C@@H]2OC(=O)C[C@@]23C(=O)O[C@@H]2N(CC45CC6CC(CC(C6)C4)C5)C(=O)[C@H](OC(=O)c4ccccc4)[C@]213` [SCC363, (3aS,5aS,8R,8aS,9R,10aS)-6-(adamantan-1-ylmethyl)-9-(tert-butyl)-9-hydroxy-2,4,7-trioxooctahydro-4H,9H-furo[3″,2″:2′,3′]cyclopenta[1′,2′:3,4]furo[2,3-b]pyrrol-8-yl benzoate] showed an IC50 in the data set with A549 cells [4] (48 hours) of 9.99 µM.

As to `CC(C)(C)[C@]1(O)C[C@@H]2OC(=O)C[C@@]23C(=O)O[C@@H]2N(c4ccc(C(F)(F)F)cc4)C(=O)[C@H](OC(=O)c4ccccc4)[C@]213` [P-29, (3aS,5aS,8R,9R,10aS)-9-(tert-butyl)-9-hydroxy-2,4,7-trioxo-6-(4-(trifluoromethyl)phenyl)octahydro-4H,9H-furo [3″,2″:2′,3′]cyclopenta [1′,2′:3,4]furo [2,3-b]pyrrol-8-yl benzoate], the viability at 50 µM in [1] (A549, 48 h) came to 53.1%; in the data set on A549 cells [2] (A549, 48 h), 46.7%; in the data set on Jurkat cells (setting [11]), 59.6%. In addition, half-maximal inhibition in the data set with A549 cells [4] (A549, 48 h) (IC50) was put at 5.84 µM.

Consider `CC(C)(C)[C@]1(O)C[C@@H]2OC(=O)C[C@@]23C(=O)O[C@@H]2N(c4ccc(Cl)c(Cl)c4)C(=O)[C@H](OC(=O)c4ccccc4)[C@]213` [P-21, (3aS,5aS,8R,8aS,9R,10aS)-9-(tert-butyl)-9-hydroxy-2,4,7-trioxo-6-(3,4-dichloro-phenyl)octahydro-4H,9H-furo [3″,2″:2′,3′]cyclopenta [1′,2′:3,4]furo [2,3-b]pyrrol-8-yl benzoate], for which the viability at 50 µM is 55% in data set [1] (A549, 48 h); 56.5% in the data set on A549 cells [2] (A549, 48 h); 53.5% in the data set on Jurkat cells (setting [11]). In the data set with A549 cells [4] (A549, 48 h), this molecule gave a half-inhibitory concentration (IC50) of 17.9 µM.

Take `CC(C)(C)[C@]1(O)C[C@@H]2OC(=O)C[C@@]23C(=O)O[C@@H]2OC(=O)[C@H](O)[C@]213` [bilobalide]: the “shift of RSL3 dose-dependent viability curve” value in [5] and in [9] was “relatively marginal” throughout. Moreover, the “intracellular ROS level (CellROX fluorescent staining)” value with HMC3 cells [6] is “no reduction in ROS level”. For the same molecule, in the data set on HMC3 cells [7], the “lipid peroxidation level (C11-BODIPY)” value was “no significant alteration”. For the same molecule, in the data set with HMC3 cells [8], the “cytotoxicity (cell viability)” value was “no significant cytotoxicity”. In addition, the “concentration remaining (hydrolytic stability)” value is “below 20%” in [3] (buffer pH 6.8, after 20 hours) and “below 20%” in data set [3] (setting [10]).
